Measured values taken from patent US20250092088A1, “PEPTIDE COMPOUND PRODUCTION METHOD” (CHUBU UNIVERSITY EDUCATIONAL FOUNDATION, priority 2022, published 2025).

Assay: TLC analysis of H-Ala-O-PG to evaluate polarity reduction by protecting groups
Assay type: physicochemical
Conditions: hexane/ethyl acetate=2/1, L-Ala with terminal carboxyl protected by PG (H-Ala-O-PG)
Text: As protecting groups for the terminal carboxyl groups of amino acid/peptide compounds, the silicon-containing hydrophobic substituents TAG1(Si), TAG2(Si), and TAG3(Si) synthesized in Examples 1 to 3, the conventionally known protecting group tBu group, and the previously mentioned TAGa group (alkoxybenzyl ester group) represented by the following formula, which is described in Non-Patent Literature 6 (Org. Process Res. Dev. 2019, Vol. 23, p. 2576-2581), were used to protect the terminal carboxyl of an amino acid (L-Ala), and their effects on polarity reduction were evaluated.

Rf value: 0.07
SMILES: C[C@H](N)C(=O)OC(C)(C)C [tBu, reference compound]
